System: peptide-specific CD4 T cells
Format: cell-based, human
Settings: ELIspot and proliferation; peptide 10 μg/ml, CEA protein 1 μg/ml, 20-24 hours; day 15 of in vitro stimulation; three replicates

MELLLVNKLKWNLAA [Peptide C140] was tested, and the “reactivity of peptide-specific CD4 T cells” value was “did not respond”.

From publication PMC3667390 (Cancer immunology, immunotherapy : CII, 2009)
